Assay results taken from US11534457B2, “Use of dextran sulfate” (priority 2017, dated 2022).

Tested on: human Schwann cells
Assay: Gene expression array and pathway analysis, Schwann cells
Format: cell-based
Description: For each cell line, n=8×25 cm^2 culture flasks were set up. Two flasks were harvested for each cell type on the day of treatment (24 hours after seeding). This represents the Day0 time point. From the remaining flasks, three flasks were treated with Control Medium and three were treated with Culture Medium (CM) containing LMW-DS to give a final concentration of 0.01 mg/ml. Cells from the treated flasks were collected after 48 hours. Therefore the collected data represent (a) untreated cells (Day0 Controls and Day2 Controls) and (b) cells treated with LMW-DS for 48 hours (Day2 LMW-DS treated).
25 cm^2 flasks were coated by adding 2 ml per flask of a solution of 50 μg/ml poly-d-lysine in Hank's balanced salt solution (HBSS) and incubating overnight at 37° C. in the dark. Flasks were washed with cell culture water and air-dried for 30 min in the dark. Flasks were coated by adding 1 ml per flask of a solution of 25 μg/ml laminin in phosphate-buffered saline (PBS) and incubating for 2 hour at 37° C. in the dark. The laminin flasks were washed with PBS three times before plating cells.
Schwann cells growth medium was prepared by adding 10% of fetal bovine serum (FBS) to high-glucose DMEM and pre-warmed to 37° C. Cells were thawed in a 37° C. water bath for no longer than 2 min.
Cells from 12 vials were each gently transferred to a tube containing 10 ml of high-glucose DMEM medium and centrifuged at 400 relative centrifugal field (RCF) for 10 min. Pellet was resuspended in culture medium. The cells from the 12 vials were mixed and distributed equally into the previously coated 25 cm^2 flasks (n=8). Cells were incubated at 37° C. with 5% CO2. Cells were allowed to settle for 24 hours before LMW-DS treatment.
LMW-DS was provided at a stock concentration of 20 mg/ml and was kept in a temperature monitored refrigerator at 4° C. A fresh […]LMW-DS stock (1.0 mg/ml) was prepared in sterile DMEM-F12. The concentrated drug stock was sterile filtered and added to the respective culture media (19.6 ml CM and 0.4 ml LMW-DS stock solution). The Control was made using 19.6 ml CM and 0.4 ml of DMEM-F12. LMW-DS and CM were added to the respective flasks (5 ml each) to reach the 0.01 mg/ml concentration of LMW-DS in each dish with a total of 10 ml CM each.
CM was aspirated into a clean and labelled 15 ml Falcon tube. The flasks (without culture medium) were placed into the −80° C. freezer for 30 minutes. The CM in the Falcon tubes were spun at 3000×g for 5 minutes. Supernatant was removed and the small pellet was re-suspended in 2.5 ml Trizol:Water (4:1) solution at room temperature (RT, […]).
Two aliquots of 1 ml lysate was removed from each sample and 200 μl of chloroform was added to each (0.2 ml of chloroform per 1 ml of TRIzol Reagent used during the cell lysis step) and the tube was shaken vigorously. Samples were stored at RT for 2-3 minutes and subsequently centrifuged at 12,000×g for 15 minutes at 4° C.
The expression data were downloaded into separate files for each cell line. The ‘Background corrected’ expression is the data from the “gProcessedSignal” of the arrays that is the result of the background signal extracted from the actual signal of the relevant probe. This is the most often used variable in array analysis. The background corrected signal was log 2 transformed for all samples for statistical analysis. To reduce the false discovery rate in the samples, the signals that were below ‘expression level’ were removed. The ‘below expression’ level was set at 5 for the log 2 transformed expression values.
Based on the expression pattern of the Control probes on each array it was decided to carry out Median Centering for all arrays before analysis to reduce the variability of the results. […]

low molecular weight dextran sulfate [LMW-DS]
Complex III (cytochrome bc1), mitochondrial oxidative stress pathway (0.01 mg/ml, 48 h): inhibited | TGFβ-induced effect in adhesion of immune cells, activation and aggregation of cells, fibrosis, self-activation of TGFβ (0.01 mg/ml, 48 h): totally abolished | activity and/or levels of glutamate transporters, in particular SLC1A2/3 (0.01 mg/ml, 48 h): increased | aggregate effect on pathways regulating cell movement and attachment (17 molecules) (0.01 mg/ml, 48 h): cell adhesion would be inhibited while cell movement would be activated | cellular attachment from attachment-related molecules (17 differentially expressed) (0.01 mg/ml, 48 h): overall slightly increased attachment | expression of protein complex (CALM, Gβγ, GRM7, PICK1) (0.01 mg/ml, 48 h): induced the expression | number of genes differentially expressed, D0 control vs D2 LMW-DS treated (0.01 mg/ml, 48 h): 1244 genes | number of genes differentially expressed, D2 control vs D2 LMW-DS treated (0.01 mg/ml, 48 h): 700 genes | number of genes: abolished nutrient effect / no effect (0.01 mg/ml, 48 h): 21 | number of genes: abolished nutrient effect / significant downregulation (0.01 mg/ml, 48 h): 1 | number of genes: abolished nutrient effect / significant upregulation (0.01 mg/ml, 48 h): 13 | number of genes: abolished nutrient effect / total (0.01 mg/ml, 48 h): 35 | number of genes: enhanced response to nutrients / significant downregulation (0.01 mg/ml, 48 h): 122 | number of genes: enhanced response to nutrients / significant upregulation (0.01 mg/ml, 48 h): 441 | number of genes: enhanced response to nutrients / total (0.01 mg/ml, 48 h): 563 | number of genes: new effect induced by LMW-DS / significant downregulation (0.01 mg/ml, 48 h): 352 | number of genes: new effect induced by LMW-DS / significant upregulation (0.01 mg/ml, 48 h): 74 | number of genes: new effect induced by LMW-DS / total (0.01 mg/ml, 48 h): 426 | number of genes: not different from control / significant downregulation (0.01 mg/ml, 48 h): 42 | number of genes: not different from control / significant upregulation (0.01 mg/ml, 48 h): 373 | number of genes: not different from control / total (0.01 mg/ml, 48 h): 415 | number of genes: total / no effect (0.01 mg/ml, 48 h): 21 | number of genes: total / significant downregulation (0.01 mg/ml, 48 h): 517 | number of genes: total / significant upregulation (0.01 mg/ml, 48 h): 901 | number of genes: total / total (0.01 mg/ml, 48 h): 1439 | upstream regulator ANGPT2: activation z-score (D2 LMW-DS treatment): 1.283 | upstream regulator ANGPT2: predicted activation state relative D2 control (D2 LMW-DS treatment): Activated | upstream regulator BMP2: activation z-score (D2 LMW-DS treatment): 1.395 | upstream regulator BMP2: predicted activation state relative D2 control (D2 LMW-DS treatment): Activated | upstream regulator BMP4: activation z-score (D2 LMW-DS treatment): 0.927 | upstream regulator BMP4: predicted activation state relative D2 control (D2 LMW-DS treatment): Activated | upstream regulator BMP7: activation z-score (D2 LMW-DS treatment): 1.86 | upstream regulator BMP7: predicted activation state relative D2 control (D2 LMW-DS treatment): Activated | upstream regulator EGF: activation z-score (D2 LMW-DS treatment): 2.059 | upstream regulator EGF: predicted activation state relative D2 control (D2 LMW-DS treatment): Activated | upstream regulator FGF2: activation z-score (D2 LMW-DS treatment): 2.37 | upstream regulator FGF2: predicted activation state relative D2 control (D2 LMW-DS treatment): Activated | upstream regulator GDF2: activation z-score (D2 LMW-DS treatment): 2.561 | upstream regulator GDF2: predicted activation state relative D2 control (D2 LMW-DS treatment): Activated | upstream regulator HGF: activation z-score (D2 LMW-DS treatment): 1.432 | upstream regulator HGF: predicted activation state relative D2 control (D2 LMW-DS treatment): Activated | upstream regulator IGF1: activation z-score (D2 LMW-DS treatment): 1.332 | upstream regulator IGF1: predicted activation state relative D2 control (D2 LMW-DS treatment): Activated | upstream regulator NRG1: activation z-score (D2 LMW-DS treatment): 1.768 | upstream regulator NRG1: predicted activation state relative D2 control (D2 LMW-DS treatment): Activated | upstream regulator NRTN: activation z-score (D2 LMW-DS treatment): 0.958 | upstream regulator NRTN: predicted activation state relative D2 control (D2 LMW-DS treatment): Activated | upstream regulator PGF: activation z-score (D2 LMW-DS treatment): 0.254 | upstream regulator PGF: predicted activation state relative D2 control (D2 LMW-DS treatment): Activated | upstream regulator TGFβ1: activation z-score (D2 LMW-DS treatment): 1.05 | upstream regulator TGFβ1: predicted activation state relative D2 control (D2 LMW-DS treatment): Less inhibited | upstream regulator VEGFA: activation z-score (D2 LMW-DS treatment): 3.4 | upstream regulator VEGFA: predicted activation state relative D2 control (D2 LMW-DS treatment): Activated | upstream regulator WISP2: activation z-score (D2 LMW-DS treatment): -0.896 | upstream regulator WISP2: predicted activation state relative D2 control (D2 LMW-DS treatment): Less inhibited
